Experimental data reported in the supplement of paper PMC10307832.

Key:
Experiment in all cases: relative viability (nuclei count vs DMSO), 5 days (fraction); higher = more cells survive
JZL-184 = compound: C1CN(CCC1C(C2=CC3=C(C=C2)OCO3)(C4=CC5=C(C=C4)OCO5)O)C(=O)OC6=CC=C(C=C6)[N+](=O)[O-] [JZL-184]
Procedure, shortened: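 Acceptance criteria were a control CV below 25% and at least one doubling per plate. Lung cancer cell lines in 1536-well plates got five library-drug doses (not always all listed) √10 apart by pinning and were left 5 days with no medium change. Viability divides treated-well nuclei by vehicle-well nuclei and is the median across plates. Nuclei were counted by MetaXpress from 4× Hoechst images.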

JZL-184 + Luminespib = compound: C1CN(CCC1C(C2=CC3=C(C=C2)OCO3)(C4=CC5=C(C=C4)OCO5)O)C(=O)OC6=CC=C(C=C6)[N+](=O)[O-] [JZL-184] + CCNC(=O)c1noc(-c2cc(C(C)C)c(O)cc2O)c1-c1ccc(CN2CCOCC2)cc1 [Luminespib] (partner 0.01 µM)
Procedure, shortened: (§1)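 Lung cancer cell lines in 1536-well plates were dosed by pin tool the day after seeding, either with one drug alone or with a fixed anchor-drug dose plus five library-drug doses (not always all listed) in √10 steps. After 5 days, cells were fixed and their nuclei stained in one step (final 0.05% Triton X-100, 1% formaldehyde, 1 ug/ml Hoechst), then counted on 4× images. Relative viability is the nuclei count in treated wells divided by that in vehicle wells. Values are medians of duplicate plates.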

JZL-184 + Foretinib = compound: C1CN(CCC1C(C2=CC3=C(C=C2)OCO3)(C4=CC5=C(C=C4)OCO5)O)C(=O)OC6=CC=C(C=C6)[N+](=O)[O-] [JZL-184] + COc1cc2c(Oc3ccc(NC(=O)C4(C(=O)Nc5ccc(F)cc5)CC4)cc3F)ccnc2cc1OCCCN1CCOCC1 [Foretinib] (partner 0.25 µM)
Procedure, shortened: as §1

JZL-184 + OSI-027 = compound: C1CN(CCC1C(C2=CC3=C(C=C2)OCO3)(C4=CC5=C(C=C4)OCO5)O)C(=O)OC6=CC=C(C=C6)[N+](=O)[O-] [JZL-184] + COc1cccc2cc(-c3nc([C@H]4CC[C@H](C(=O)O)CC4)n4ncnc(N)c34)[nH]c12 [OSI-027] (partner 0.5 µM)
Procedure, shortened: as §1

JZL-184 + Tozasertib = compound: C1CN(CCC1C(C2=CC3=C(C=C2)OCO3)(C4=CC5=C(C=C4)OCO5)O)C(=O)OC6=CC=C(C=C6)[N+](=O)[O-] [JZL-184] + Cc1cc(Nc2cc(N3CCN(C)CC3)nc(Sc3ccc(NC(=O)C4CC4)cc3)n2)n[nH]1 [Tozasertib] (partner 0.1 µM)
Procedure, shortened: as §1

JZL-184 + Dasatinib = compound: C1CN(CCC1C(C2=CC3=C(C=C2)OCO3)(C4=CC5=C(C=C4)OCO5)O)C(=O)OC6=CC=C(C=C6)[N+](=O)[O-] [JZL-184] + Cc1nc(Nc2ncc(C(=O)Nc3c(C)cccc3Cl)s2)cc(N2CCN(CCO)CC2)n1 [Dasatinib] (partner 0.075 µM)
Procedure, shortened: as §1

JZL-184 + Phenformin = compound: C1CN(CCC1C(C2=CC3=C(C=C2)OCO3)(C4=CC5=C(C=C4)OCO5)O)C(=O)OC6=CC=C(C=C6)[N+](=O)[O-] [JZL-184] + N=C(N)NC(=N)NCCc1ccccc1 [Phenformin] (partner 250 µM)
Procedure, shortened: as §1

JZL-184 + Trametinib = compound: C1CN(CCC1C(C2=CC3=C(C=C2)OCO3)(C4=CC5=C(C=C4)OCO5)O)C(=O)OC6=CC=C(C=C6)[N+](=O)[O-] [JZL-184] + CC(=O)Nc1cccc(-n2c(=O)n(C3CC3)c(=O)c3c(Nc4ccc(I)cc4F)n(C)c(=O)c(C)c32)c1 [Trametinib] (partner 0.02 µM)
Procedure, shortened: as §1

JZL-184 + Palbociclib = compound: C1CN(CCC1C(C2=CC3=C(C=C2)OCO3)(C4=CC5=C(C=C4)OCO5)O)C(=O)OC6=CC=C(C=C6)[N+](=O)[O-] [JZL-184] + CC(=O)c1c(C)c2cnc(Nc3ccc(N4CCNCC4)cn3)nc2n(C2CCCC2)c1=O [Palbociclib] (partner 0.5 µM)
Procedure, shortened: as §1

JZL-184 + AZD7762 = compound: C1CN(CCC1C(C2=CC3=C(C=C2)OCO3)(C4=CC5=C(C=C4)OCO5)O)C(=O)OC6=CC=C(C=C6)[N+](=O)[O-] [JZL-184] + NC(=O)Nc1cc(-c2cccc(F)c2)sc1C(=O)N[C@H]1CCCNC1 [AZD7762] (partner 0.2 µM)
Procedure, shortened: as §1

JZL-184 + Pemetrexed = compound: C1CN(CCC1C(C2=CC3=C(C=C2)OCO3)(C4=CC5=C(C=C4)OCO5)O)C(=O)OC6=CC=C(C=C6)[N+](=O)[O-] [JZL-184] + Nc1nc2[nH]cc(CCc3ccc(C(=O)N[C@@H](CCC(=O)O)C(=O)O)cc3)c2c(=O)[nH]1 [Pemetrexed] (partner 0.2 µM)
Procedure, shortened: as §1

JZL-184 + Decitabine = compound: C1CN(CCC1C(C2=CC3=C(C=C2)OCO3)(C4=CC5=C(C=C4)OCO5)O)C(=O)OC6=CC=C(C=C6)[N+](=O)[O-] [JZL-184] + Nc1ncn([C@H]2C[C@H](O)[C@@H](CO)O2)c(=O)n1 [Decitabine] (partner 2 µM)
Procedure, shortened: as §1

JZL-184 + Vorinostat = compound: C1CN(CCC1C(C2=CC3=C(C=C2)OCO3)(C4=CC5=C(C=C4)OCO5)O)C(=O)OC6=CC=C(C=C6)[N+](=O)[O-] [JZL-184] + O=C(CCCCCCC(=O)Nc1ccccc1)NO [Vorinostat] (partner 1 µM)
Procedure, shortened: as §1

JZL-184 + Olaparib = compound: C1CN(CCC1C(C2=CC3=C(C=C2)OCO3)(C4=CC5=C(C=C4)OCO5)O)C(=O)OC6=CC=C(C=C6)[N+](=O)[O-] [JZL-184] + O=C(c1cc(Cc2n[nH]c(=O)c3ccccc23)ccc1F)N1CCN(C(=O)C2CC2)CC1 [Olaparib] (partner 8 µM)
Procedure, shortened: as §1

NCI-H1623
relative viability (JZL-184; 0.04 µM): 0.941 | relative viability (JZL-184; 0.4 µM): 0.988 | relative viability (JZL-184; 1.265 µM): 1 | relative viability (JZL-184; 4 µM): 0.937 | relative viability (JZL-184 + Luminespib; first compound 0.04 µM): 0.389 | relative viability (JZL-184 + Luminespib; first compound 0.4 µM): 0.411 | relative viability (JZL-184 + Luminespib; first compound 1.265 µM): 0.626 | relative viability (JZL-184 + Luminespib; first compound 4 µM): 0.585 | relative viability (JZL-184 + Foretinib; first compound 0.04 µM): 0.904 | relative viability (JZL-184 + Foretinib; first compound 0.4 µM): 0.818 | relative viability (JZL-184 + Foretinib; first compound 1.265 µM): 0.944 | relative viability (JZL-184 + Foretinib; first compound 4 µM): 0.807 | relative viability (JZL-184 + OSI-027; first compound 0.04 µM): 0.463 | relative viability (JZL-184 + OSI-027; first compound 0.4 µM): 0.438 | relative viability (JZL-184 + OSI-027; first compound 1.265 µM): 0.464 | relative viability (JZL-184 + OSI-027; first compound 4 µM): 0.446 | relative viability (JZL-184 + Tozasertib; first compound 0.04 µM): 0.453 | relative viability (JZL-184 + Tozasertib; first compound 0.4 µM): 0.442 | relative viability (JZL-184 + Tozasertib; first compound 1.265 µM): 0.442 | relative viability (JZL-184 + Tozasertib; first compound 4 µM): 0.482 | relative viability (JZL-184 + Dasatinib; first compound 0.04 µM): 0.512 | relative viability (JZL-184 + Dasatinib; first compound 0.4 µM): 0.561 | relative viability (JZL-184 + Dasatinib; first compound 1.265 µM): 0.573 | relative viability (JZL-184 + Dasatinib; first compound 4 µM): 0.47 | relative viability (JZL-184 + Phenformin; first compound 0.04 µM): 0.566 | relative viability (JZL-184 + Phenformin; first compound 0.4 µM): 0.551 | relative viability (JZL-184 + Phenformin; first compound 1.265 µM): 0.595 | relative viability (JZL-184 + Phenformin; first compound 4 µM): 0.565

NCI-H1648
relative viability (JZL-184; 0.04 µM): 0.593 | relative viability (JZL-184; 0.4 µM): 0.893 | relative viability (JZL-184; 1.265 µM): 1.07 | relative viability (JZL-184; 4 µM): 1.08 | relative viability (JZL-184 + Trametinib; first compound 0.04 µM): 0.402 | relative viability (JZL-184 + Trametinib; first compound 0.4 µM): 0.413 | relative viability (JZL-184 + Trametinib; first compound 1.265 µM): 0.481 | relative viability (JZL-184 + Trametinib; first compound 4 µM): 0.445 | relative viability (JZL-184 + Palbociclib; first compound 0.04 µM): 0.271 | relative viability (JZL-184 + Palbociclib; first compound 0.4 µM): 0.238 | relative viability (JZL-184 + Palbociclib; first compound 1.265 µM): 0.233 | relative viability (JZL-184 + Palbociclib; first compound 4 µM): 0.297 | relative viability (JZL-184 + OSI-027; first compound 0.4 µM): 0.24 | relative viability (JZL-184 + OSI-027; first compound 1.265 µM): 0.257 | relative viability (JZL-184 + OSI-027; first compound 4 µM): 0.223 | relative viability (JZL-184 + Tozasertib; first compound 0.4 µM): 0.491 | relative viability (JZL-184 + Tozasertib; first compound 1.265 µM): 0.466 | relative viability (JZL-184 + Tozasertib; first compound 4 µM): 0.538 | relative viability (JZL-184 + AZD7762; first compound 0.04 µM): 0.694 | relative viability (JZL-184 + AZD7762; first compound 0.4 µM): 0.719 | relative viability (JZL-184 + AZD7762; first compound 1.265 µM): 0.824 | relative viability (JZL-184 + AZD7762; first compound 4 µM): 0.706 | relative viability (JZL-184 + Pemetrexed; first compound 0.04 µM): 0.712 | relative viability (JZL-184 + Pemetrexed; first compound 0.4 µM): 0.832 | relative viability (JZL-184 + Pemetrexed; first compound 1.265 µM): 0.651 | relative viability (JZL-184 + Pemetrexed; first compound 4 µM): 0.564 | relative viability (JZL-184 + Decitabine; first compound 0.04 µM): 0.437 | relative viability (JZL-184 + Decitabine; first compound 0.4 µM): 0.551 | relative viability (JZL-184 + Decitabine; first compound 1.265 µM): 0.546 | relative viability (JZL-184 + Decitabine; first compound 4 µM): 0.549 | relative viability (JZL-184 + Vorinostat; first compound 0.04 µM): 0.307 | relative viability (JZL-184 + Vorinostat; first compound 0.4 µM): 0.434 | relative viability (JZL-184 + Vorinostat; first compound 1.265 µM): 0.754 | relative viability (JZL-184 + Vorinostat; first compound 4 µM): 0.421 | relative viability (JZL-184 + Olaparib; first compound 0.04 µM): 1.03 | relative viability (JZL-184 + Olaparib; first compound 0.4 µM): 0.853 | relative viability (JZL-184 + Olaparib; first compound 1.265 µM): 0.783 | relative viability (JZL-184 + Olaparib; first compound 4 µM): 0.626
